Data: ChEMBL document CHEMBL1201862, “PubChem BioAssay data set” (2004)
Calls of active or inactive are those of the source.

Columns and labels:
[1] = THP-1 cell cytotoxicity, dose response, cytotoxicity control for non-replicating M. tuberculosis project (AID 489025); format: functional
[2] = cells; format: functional
[3] = biological target: T1, Cytochrome P450 3A4 (Homo sapiens, UniProt P08684); details: Potency
[4] = biological target: T2, Ubiquitin-conjugating enzyme E2 N (Homo sapiens, UniProt P61088); format: functional;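 note: Dose-response confirmation in a TR-FRET assay detecting UBC13-driven polyubiquitin chain formation, inhibition measured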
T2 sequence (P61088 whole entry): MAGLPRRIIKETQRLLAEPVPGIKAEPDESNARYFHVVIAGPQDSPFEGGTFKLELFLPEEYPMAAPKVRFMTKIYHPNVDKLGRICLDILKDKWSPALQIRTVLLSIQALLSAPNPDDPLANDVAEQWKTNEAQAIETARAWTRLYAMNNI

[5] = biological target: T3, High affinity choline transporter 1 (Homo sapiens, UniProt Q9GZV3); assay: human choline transporter blockers, potency – cell-based, 5-point CRC, membrane potential dye, dose response (AID 504840); format: functional
T3 sequence (Q9GZV3 whole entry): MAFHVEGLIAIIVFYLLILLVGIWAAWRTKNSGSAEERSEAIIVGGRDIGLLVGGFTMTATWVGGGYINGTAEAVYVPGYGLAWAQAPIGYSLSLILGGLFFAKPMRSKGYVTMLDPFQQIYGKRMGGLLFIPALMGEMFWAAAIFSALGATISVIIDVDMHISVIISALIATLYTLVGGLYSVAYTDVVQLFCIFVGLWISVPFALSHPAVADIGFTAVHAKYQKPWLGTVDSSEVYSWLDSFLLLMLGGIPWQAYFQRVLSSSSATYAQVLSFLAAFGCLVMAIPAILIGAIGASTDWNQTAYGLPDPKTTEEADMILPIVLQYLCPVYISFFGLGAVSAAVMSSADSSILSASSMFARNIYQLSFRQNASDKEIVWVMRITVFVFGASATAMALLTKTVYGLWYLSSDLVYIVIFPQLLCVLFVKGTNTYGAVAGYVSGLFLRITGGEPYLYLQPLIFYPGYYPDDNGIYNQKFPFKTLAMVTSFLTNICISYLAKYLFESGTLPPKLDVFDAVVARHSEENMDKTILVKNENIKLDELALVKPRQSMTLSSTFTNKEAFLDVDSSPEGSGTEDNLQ

[6] = cAMP pathway inhibition in counterscreen cell line – TR-FRET cAMP detection, counter-screen for MC4R biased antagonist project, dose response (AID 602305); format: functional, cell-based;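 note: U2OS cells stimulated with forskolin near its EC80 as the cAMP inducer; potency is for inhibition of forskolin-stimulated cAMP signaling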
[7] = biological target: Melanocortin receptor 4 (Homo sapiens, UniProt P32245); assay: inhibitors of MC4R cAMP signaling – cell-based, TR-FRET, biased antagonists, dose response (AID 602298); format: functional;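 note: antagonist potency against agonist-stimulated cAMP production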
Sequence of Melanocortin receptor 4 (P32245 whole entry): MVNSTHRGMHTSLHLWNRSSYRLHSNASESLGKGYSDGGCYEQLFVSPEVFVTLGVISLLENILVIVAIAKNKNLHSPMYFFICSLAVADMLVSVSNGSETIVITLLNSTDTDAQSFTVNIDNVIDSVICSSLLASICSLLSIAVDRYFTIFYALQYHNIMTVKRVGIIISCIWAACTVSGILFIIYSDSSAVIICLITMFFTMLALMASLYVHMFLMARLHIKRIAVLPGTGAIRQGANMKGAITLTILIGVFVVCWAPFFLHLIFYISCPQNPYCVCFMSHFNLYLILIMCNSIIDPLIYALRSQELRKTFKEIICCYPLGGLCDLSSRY

[8] = biological target: Genome polyprotein (dengue virus type 2, UniProt P29990); assay: flavivirus cap methylation enzyme inhibition – biochemical, confirmation dose response, primary screen (AID 588689); format: functional
Sequence of Genome polyprotein (P29990 2492-3391 limits assumed): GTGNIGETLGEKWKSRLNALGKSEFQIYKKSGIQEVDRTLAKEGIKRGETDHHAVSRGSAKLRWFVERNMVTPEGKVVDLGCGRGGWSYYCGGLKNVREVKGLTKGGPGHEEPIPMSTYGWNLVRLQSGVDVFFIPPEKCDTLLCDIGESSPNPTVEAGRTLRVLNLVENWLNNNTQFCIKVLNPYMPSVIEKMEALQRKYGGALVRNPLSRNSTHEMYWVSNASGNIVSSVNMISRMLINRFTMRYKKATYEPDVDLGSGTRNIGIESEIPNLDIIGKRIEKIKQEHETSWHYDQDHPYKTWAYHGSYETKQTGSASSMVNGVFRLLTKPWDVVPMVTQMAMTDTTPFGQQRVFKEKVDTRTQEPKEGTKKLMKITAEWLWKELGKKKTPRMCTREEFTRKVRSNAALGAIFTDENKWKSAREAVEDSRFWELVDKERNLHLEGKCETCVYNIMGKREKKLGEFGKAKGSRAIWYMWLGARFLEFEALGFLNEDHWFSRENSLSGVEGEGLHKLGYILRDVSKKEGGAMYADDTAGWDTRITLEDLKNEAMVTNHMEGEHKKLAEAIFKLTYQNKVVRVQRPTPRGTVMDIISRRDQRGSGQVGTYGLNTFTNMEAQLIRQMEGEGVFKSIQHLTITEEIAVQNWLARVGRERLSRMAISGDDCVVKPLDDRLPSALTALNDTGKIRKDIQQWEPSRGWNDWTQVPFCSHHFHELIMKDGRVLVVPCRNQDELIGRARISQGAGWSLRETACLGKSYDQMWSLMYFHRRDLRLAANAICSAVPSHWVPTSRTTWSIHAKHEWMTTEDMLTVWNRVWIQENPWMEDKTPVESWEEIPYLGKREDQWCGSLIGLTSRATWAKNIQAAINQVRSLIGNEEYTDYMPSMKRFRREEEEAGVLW

[9] = cells; format: functional, cell-based
[10] = cells; format: functional, cell-based; remark: listed apart in the source
[11] = system: HeLa; assay: viability loss in HeLa cells – cell-based, ATP luminescence, cherry-pick samples, cytotoxicity control, dose response (AID 687004); format: functional; details: Homo sapiens
[12] = biological target: T4, Apoptotic protease-activating factor 1 (Homo sapiens, UniProt O14727); format: functional
T4 sequence (O14727 whole entry): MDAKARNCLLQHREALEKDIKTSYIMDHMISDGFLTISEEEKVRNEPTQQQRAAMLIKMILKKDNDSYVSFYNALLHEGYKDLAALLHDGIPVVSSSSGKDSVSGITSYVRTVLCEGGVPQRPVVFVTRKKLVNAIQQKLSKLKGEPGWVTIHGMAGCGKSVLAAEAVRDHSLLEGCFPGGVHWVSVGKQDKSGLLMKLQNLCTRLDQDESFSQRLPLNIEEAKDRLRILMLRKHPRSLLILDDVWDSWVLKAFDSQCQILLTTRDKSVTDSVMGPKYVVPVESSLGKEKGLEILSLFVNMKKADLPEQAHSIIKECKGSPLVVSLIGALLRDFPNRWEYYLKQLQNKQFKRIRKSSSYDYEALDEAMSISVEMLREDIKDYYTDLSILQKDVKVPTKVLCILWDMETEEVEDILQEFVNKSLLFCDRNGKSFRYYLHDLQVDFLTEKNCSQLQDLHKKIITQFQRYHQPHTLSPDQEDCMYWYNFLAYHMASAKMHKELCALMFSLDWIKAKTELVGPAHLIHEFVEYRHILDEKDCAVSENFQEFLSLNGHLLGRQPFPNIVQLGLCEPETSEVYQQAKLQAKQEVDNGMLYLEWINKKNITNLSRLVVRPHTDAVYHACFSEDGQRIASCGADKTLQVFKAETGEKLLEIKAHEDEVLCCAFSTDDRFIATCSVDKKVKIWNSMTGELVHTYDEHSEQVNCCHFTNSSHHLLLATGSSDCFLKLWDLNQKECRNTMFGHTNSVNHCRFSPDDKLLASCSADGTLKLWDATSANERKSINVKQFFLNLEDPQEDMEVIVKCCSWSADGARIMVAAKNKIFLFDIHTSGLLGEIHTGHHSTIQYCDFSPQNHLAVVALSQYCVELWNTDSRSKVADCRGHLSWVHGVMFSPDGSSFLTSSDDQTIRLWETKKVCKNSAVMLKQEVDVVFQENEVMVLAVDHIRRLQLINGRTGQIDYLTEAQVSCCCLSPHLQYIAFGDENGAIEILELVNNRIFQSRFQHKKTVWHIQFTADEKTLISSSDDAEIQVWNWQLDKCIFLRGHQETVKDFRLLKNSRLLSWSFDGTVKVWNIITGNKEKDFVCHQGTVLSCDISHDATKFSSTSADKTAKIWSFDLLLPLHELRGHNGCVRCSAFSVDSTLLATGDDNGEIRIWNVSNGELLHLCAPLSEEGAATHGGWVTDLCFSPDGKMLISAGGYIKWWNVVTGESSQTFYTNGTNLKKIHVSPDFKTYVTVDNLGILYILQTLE

[13] = biological target: Glucose-6-phosphate 1-dehydrogenase (Homo sapiens, UniProt P11413); assay: inhibition of Homo sapiens G6PD, dose series – biochemical, fluorescence, selectivity assay for P. falciparum G6PD inhibitor project, dose response (AID 504792); format: functional
Sequence of Glucose-6-phosphate 1-dehydrogenase (P11413 whole entry): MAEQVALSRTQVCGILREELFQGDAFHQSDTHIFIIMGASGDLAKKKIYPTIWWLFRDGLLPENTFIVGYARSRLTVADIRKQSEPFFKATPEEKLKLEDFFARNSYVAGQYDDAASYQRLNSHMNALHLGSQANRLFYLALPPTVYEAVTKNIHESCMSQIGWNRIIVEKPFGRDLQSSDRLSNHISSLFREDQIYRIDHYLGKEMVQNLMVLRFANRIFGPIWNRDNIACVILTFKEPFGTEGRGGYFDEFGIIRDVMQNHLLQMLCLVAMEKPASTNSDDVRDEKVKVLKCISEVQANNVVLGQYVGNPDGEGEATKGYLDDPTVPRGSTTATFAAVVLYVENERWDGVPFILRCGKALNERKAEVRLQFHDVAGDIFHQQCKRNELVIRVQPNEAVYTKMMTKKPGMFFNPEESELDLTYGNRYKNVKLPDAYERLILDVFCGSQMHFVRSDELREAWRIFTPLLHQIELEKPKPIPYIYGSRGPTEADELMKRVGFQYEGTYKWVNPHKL

[14] = biological target: T1, Cytochrome P450 3A4
[15] = biological target: T5, Aminopeptidase N (Plasmodium falciparum FcB1/Columbia, UniProt O96935); assay: malaria alanyl aminopeptidase activity blockers – biochemical, fluorogenic H-Leu-NHMec substrate, 1536-well (AID 1445); design: species or system Plasmodium falciparum 3D7, 3D7
T5 sequence (O96935 whole entry): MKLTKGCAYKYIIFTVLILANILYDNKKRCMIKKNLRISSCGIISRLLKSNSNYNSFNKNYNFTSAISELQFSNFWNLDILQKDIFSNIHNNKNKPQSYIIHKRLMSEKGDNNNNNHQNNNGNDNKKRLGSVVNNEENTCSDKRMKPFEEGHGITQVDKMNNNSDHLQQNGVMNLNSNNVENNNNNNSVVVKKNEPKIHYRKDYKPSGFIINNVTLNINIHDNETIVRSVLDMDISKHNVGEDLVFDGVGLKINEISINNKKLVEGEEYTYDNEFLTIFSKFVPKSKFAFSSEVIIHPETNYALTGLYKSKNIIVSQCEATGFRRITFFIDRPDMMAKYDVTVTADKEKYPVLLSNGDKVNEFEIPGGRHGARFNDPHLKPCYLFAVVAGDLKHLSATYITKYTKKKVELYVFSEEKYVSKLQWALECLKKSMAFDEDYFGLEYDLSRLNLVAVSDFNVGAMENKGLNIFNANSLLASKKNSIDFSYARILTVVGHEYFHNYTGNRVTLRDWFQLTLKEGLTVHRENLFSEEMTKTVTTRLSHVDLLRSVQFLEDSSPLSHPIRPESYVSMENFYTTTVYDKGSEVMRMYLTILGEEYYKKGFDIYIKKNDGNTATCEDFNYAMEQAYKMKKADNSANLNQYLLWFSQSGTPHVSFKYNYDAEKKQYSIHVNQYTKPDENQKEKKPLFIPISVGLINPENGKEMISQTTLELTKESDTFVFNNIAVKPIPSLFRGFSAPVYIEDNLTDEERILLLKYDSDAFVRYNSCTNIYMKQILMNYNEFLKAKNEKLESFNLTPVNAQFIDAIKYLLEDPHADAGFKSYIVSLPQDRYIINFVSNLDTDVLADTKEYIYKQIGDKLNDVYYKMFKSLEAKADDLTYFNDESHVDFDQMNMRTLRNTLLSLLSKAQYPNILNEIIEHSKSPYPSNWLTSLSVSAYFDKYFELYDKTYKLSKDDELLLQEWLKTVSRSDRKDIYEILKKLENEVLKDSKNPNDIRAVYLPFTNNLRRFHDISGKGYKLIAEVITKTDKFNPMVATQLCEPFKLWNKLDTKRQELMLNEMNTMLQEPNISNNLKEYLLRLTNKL

[16] = biological target: T6, Zinc finger protein mex-5 (Caenorhabditis elegans, UniProt Q9XUB2); assay: potency of MEX-5 RNA-binding blockers – biochemical, C. elegans, fluorescence polarization, dose response (AID 1960)
T6 sequence (Q9XUB2 whole entry): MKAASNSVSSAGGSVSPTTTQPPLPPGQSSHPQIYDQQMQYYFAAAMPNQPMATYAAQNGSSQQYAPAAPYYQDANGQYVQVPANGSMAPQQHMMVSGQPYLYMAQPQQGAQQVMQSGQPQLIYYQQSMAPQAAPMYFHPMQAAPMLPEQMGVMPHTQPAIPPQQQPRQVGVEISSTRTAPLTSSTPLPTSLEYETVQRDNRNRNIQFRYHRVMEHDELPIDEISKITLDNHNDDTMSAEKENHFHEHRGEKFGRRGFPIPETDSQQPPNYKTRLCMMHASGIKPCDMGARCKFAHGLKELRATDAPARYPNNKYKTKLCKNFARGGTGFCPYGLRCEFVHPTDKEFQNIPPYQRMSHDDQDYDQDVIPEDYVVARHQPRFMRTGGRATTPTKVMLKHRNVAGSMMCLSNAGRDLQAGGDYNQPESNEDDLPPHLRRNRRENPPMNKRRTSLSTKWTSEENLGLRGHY

[17] = biological target: T7, RNA-binding protein pos-1 (Caenorhabditis elegans, UniProt G5EF15); assay: disruptors of C. elegans POS-1 RNA interaction – biochemical, fluorescence polarization, dose response (AID 1964);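 note: purified POS-1 fused to maltose binding protein made in E. coli; potency of compounds blocking POS-1 binding to fluorescent RNA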
T7 sequence (G5EF15 whole entry): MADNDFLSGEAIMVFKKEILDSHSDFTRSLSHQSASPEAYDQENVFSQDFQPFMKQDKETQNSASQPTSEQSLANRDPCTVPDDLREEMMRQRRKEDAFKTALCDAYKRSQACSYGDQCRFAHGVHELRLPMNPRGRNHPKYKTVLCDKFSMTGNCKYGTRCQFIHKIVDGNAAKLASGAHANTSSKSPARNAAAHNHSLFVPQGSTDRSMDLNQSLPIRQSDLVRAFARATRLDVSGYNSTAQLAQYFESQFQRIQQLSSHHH

[18] = biological target: Large T antigen (Simian virus 40, UniProt P03070); format: functional, Betapolyomavirus macacae;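 note: Confirmatory-stage PubChem screen for compounds that inhibit SV40 T antigen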
Sequence of Large T antigen (P03070 whole entry): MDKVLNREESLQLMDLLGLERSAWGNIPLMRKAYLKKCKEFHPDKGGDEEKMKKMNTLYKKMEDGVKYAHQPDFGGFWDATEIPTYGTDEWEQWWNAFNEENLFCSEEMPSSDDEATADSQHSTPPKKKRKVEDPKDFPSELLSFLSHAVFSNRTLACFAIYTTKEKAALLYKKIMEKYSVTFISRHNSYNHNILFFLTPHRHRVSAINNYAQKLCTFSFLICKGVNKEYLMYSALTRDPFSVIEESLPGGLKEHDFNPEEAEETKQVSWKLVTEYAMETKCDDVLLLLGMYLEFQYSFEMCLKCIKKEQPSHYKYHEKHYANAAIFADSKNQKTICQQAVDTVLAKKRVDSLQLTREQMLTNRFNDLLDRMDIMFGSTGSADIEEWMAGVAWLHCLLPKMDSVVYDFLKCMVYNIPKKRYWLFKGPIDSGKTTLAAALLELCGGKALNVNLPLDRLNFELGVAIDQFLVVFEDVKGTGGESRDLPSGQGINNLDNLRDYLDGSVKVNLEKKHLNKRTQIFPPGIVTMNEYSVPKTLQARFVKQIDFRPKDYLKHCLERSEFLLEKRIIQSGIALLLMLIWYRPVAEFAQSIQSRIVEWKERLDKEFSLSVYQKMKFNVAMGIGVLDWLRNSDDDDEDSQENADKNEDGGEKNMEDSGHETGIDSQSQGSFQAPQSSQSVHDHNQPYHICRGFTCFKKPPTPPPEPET

T1 sequence (P08684 whole entry): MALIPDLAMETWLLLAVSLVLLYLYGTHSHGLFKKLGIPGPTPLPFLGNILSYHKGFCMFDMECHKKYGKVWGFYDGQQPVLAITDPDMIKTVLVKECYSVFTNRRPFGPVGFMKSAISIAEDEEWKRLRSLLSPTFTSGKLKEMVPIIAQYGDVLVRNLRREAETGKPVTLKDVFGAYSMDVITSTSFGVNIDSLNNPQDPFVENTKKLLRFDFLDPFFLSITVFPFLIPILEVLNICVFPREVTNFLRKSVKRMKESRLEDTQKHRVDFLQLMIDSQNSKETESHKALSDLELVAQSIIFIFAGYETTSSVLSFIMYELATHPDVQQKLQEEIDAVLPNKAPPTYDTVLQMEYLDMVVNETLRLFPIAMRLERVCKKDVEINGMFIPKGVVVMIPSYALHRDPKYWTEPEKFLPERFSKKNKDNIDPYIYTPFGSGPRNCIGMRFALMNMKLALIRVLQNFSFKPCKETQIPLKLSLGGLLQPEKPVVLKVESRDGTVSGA

Cc1nc(C)c(/C(O)=C/c2nc3ccccc3oc2=O)s1
CC50 [1]: > 40 µM (active) | IC50 [2]: 3.09 µM (active)

Cc1ncc(CN2CC=C(c3ccccc3)CC2)c(N)n1
AC50 [3]: 25.1 µM (inconclusive)

Cc1cc(C)cc(N(C(=O)c2snc(C(N)=O)c2N)C(C(=O)NCC2CCCO2)c2ccc(C)o2)c1 (stereo unspecified)
IC50 [4]: > 20 µM (inactive)

CCn1c(SCc2nc(-c3ccc(OC)c(OC)c3)no2)nnc1-c1cccs1
IC50 [5]: 11.2 µM (active)

CCCc1nc(SCC(=O)Nc2nc3c(s2)CCCC3)c2ccccc2n1
IC50 [6]: > 64.6 µM (inactive) | IC50 [7]: > 64.6 µM (inactive)

COC(=O)COc1ccc(-c2ccc(F)cc2)cc1C=O
IC50 [2]: 3.51 µM (active)

O=C1NN(c2ccccc2)C(=O)/C1=C\c1ccccc1OCC(=O)N1CCOCC1
IC50 [8]: > 100 µM (active)

CN1C(=O)C2CN(CCc3ccccc3)CNC2N(C)C1=O (stereo unspecified)
IC50 [9]: > 29.9 µM (inactive) | EC50 [10]: > 29.9 µM (inactive)

Cc1cc(C)c(NC(=O)C2CCCN2CCC(C)C)c(C)c1 (stereo unspecified)
AC50 [11]: > 52 µM (inactive)

O=C(CSc1nccc(O)n1)N1CCc2ccccc2C1
IC50 [9]: > 29.9 µM (inactive) | EC50 [10]: > 29.9 µM (inactive)

Cc1cnc(C)c(N2CCN(Cc3nc(-c4cccc(F)c4F)oc3C)CC2)n1
IC50 [5]: 15.1 µM (active)

CC(C)OCCCNc1nc2c(-c3ccccc3)nnn2c2ccccc12
IC50 [4]: > 20 µM (inactive)

O=C1/C(=C/C=C/c2ccccc2)Oc2c1ccc(O)c2CN1CCN(CCO)CC1
CC50 [1]: > 40 µM (active) | IC50 [2]: 23.3 µM (active)

O=C(Nc1ccc(F)c([N+](=O)[O-])c1)C1CC(=O)N(Cc2ccccc2)C1 (stereo unspecified)
IC50 [6]: > 64.6 µM (inactive) | IC50 [7]: > 64.6 µM (inactive)

C=CC(=O)OCCCCCCOC(=O)C=C
AC50 [3]: 25.1 µM (inconclusive)

CC(NC(=O)c1ccc(F)cc1)c1ccc2c(c1)CCCC2 (stereo unspecified)
IC50 [5]: 20.9 µM (active)

Cc1cccc(NC(=O)CSCC(=O)N(C)Cc2ccc(Cl)c(Cl)c2)c1
IC50 [12]: > 100 µM (inactive)

COc1ccc(/C=C2/SC(=S)N(CC(=O)O)C2=O)cc1OCc1ccc(Cl)cc1
IC50 [8]: > 100 µM (active)

CN(C)CCCN1C(=O)C(O)=C(C(=O)c2cc3ccccc3o2)C1c1ccccn1 (stereo unspecified)
IC50 [6]: > 64.6 µM (inactive) | IC50 [7]: > 64.6 µM (inactive)

C[C@@H]1CN([C@@H](C)CO)C(=O)CCCn2nncc2CO[C@@H]1CN(C)Cc1cccc(C(F)(F)F)c1
AC50 [11]: > 52 µM (inactive)

CC(/C=C(\O)c1ccc(Br)cc1)=N/NC(=O)c1ccccc1
CC50 [1]: 22.2 µM (active)

O=C(O)c1cccc(N2C(=O)C=CC2=O)c1
IC50 [13]: > 80 µM (inactive) | IC50 [8]: 76.9 µM (active)

CN1CCc2cc3c(cc2C(=O)Cc2ccc4c(c2C1)OCO4)OCO3
AC50 [3]: 25.1 µM (inconclusive)

O=c1cc(-c2ccc(O)c(O)c2)oc2cc(O)cc(O)c12 [LUTEOLIN]
AC50 [14]: 5.01 µM (inconclusive) | IC50 [15]: 22.9 µM (active) | EC50 [16]: 31 µM (active) | EC50 [17]: 60.4 µM (active) | IC50 [18]: 11.9 µM (active)
